Source: paper PMC6277767, “Broad and Region-Specific Impacts of the Synthetic Cannabinoid CP 55,940 in Adolescent and Adult Female Mouse Brains” (Frontiers in Molecular Neuroscience, 2018)

Test system: CD1 female mouse brain lipidome
Test: Brain-region lipid levels (HPLC/MS/MS lipidomics) 2 h after single i.p. 3 mg/kg CP 55,940 vs vehicle
Assay type: in vivo
Parameters: N-arachidonoyl phenylalanine level, Mean / N-stearoyl tryptophan level, Mean / N-stearoyl proline level, Mean / N-stearoyl leucine level, Mean / N-stearoyl phenylalanine level, Mean / N-stearoyl serine level, Mean / N-stearoyl methionine level, Mean: unit: moles per gram
Procedure: The Bloomington Institutional Animal Care and Use Committee of Indiana University reviewed and approved the animal procedures. Female mice from the CD1 strain were utilized to match our study examining THC’s effects on the brain lipidome ([Leishman et al., 2018]). Mice were given a single i.p. injection of either 3 mg/kg CP or 1:1:18 cremophor:ethanol:saline vehicle (please refer to the section “3 mg/kg CP Is Relevant for Synthetic Cannabinoid Abuse and Has Stronger Effects on the Female Mouse Brain Lipidome During Adolescence” for a justification of dose and use of female mice). Three different age groups were given injections: PND 35 and PND 50 adolescents, and adult mice (PND 113). At least eight mice in each age group received CP and at least eight received vehicle. Matching the THC study time course ([Leishman et al., 2018]), mice were sacrificed via rapid decapitation 2 h after injection. Brains were immediately removed and flash-frozen in liquid nitrogen, and then stored at -80°C until dissections were performed. Brains were dissected on an ice-cold dissection plate into the following regions: STR, HIPP, CER, THAL, CTX, HYP, MID, and STEM. These abbreviations for these brain areas will be used exclusively when discussing the results generated by these specific dissections. Each dissected area was immediately placed in liquid nitrogen and then stored at -80°C until used for lipid extraction.
Tissue extracts were performed as previously described ([Bradshaw et al., 2006]; [Stuart et al., 2013]; [Raboune et al., 2014]; [Leishman et al., 2016a],[b], [2017], [2018]). First, samples were shock frozen in liquid nitrogen, weighed, and transferred to a centrifuge tube. The mass of the largest sample was multiplied by 50 to determine how many milliliters of HPLC-grade methanol (Fisher, Fair Lawn, NJ, United States) to add. Then, samples were spiked with 500 pmol deuterium-labeled NAGly (d8NAGly; Cayman Chemical, Ann Arbor, MI, United States). Samples were placed on ice in darkness for 2 h then individually homogenized and centrifuged at 19,000 × g for 20 min at 20°C. Supernatants were diluted with HPLC water (purified in house) to make a solution of 75% water, 25% supernatant. Lipids were partially purified on C18 solid phase extraction columns (Agilent, Palo Alto, CA, United States). A series of four elutions with 1.5 mL of 60%, 75%, 85%, and 100% methanol were collected ([Stuart et al., 2013]; [Leishman et al., 2016a],[b], [2018]).
As previously described ([Bradshaw et al., 2006]; [Tan et al., 2006]; [Smoum et al., 2010]; [Stuart et al., 2013]; [Tortoriello et al., 2013]; [Raboune et al., 2014]; [Leishman et al., 2016a],[b], [2017], [2018]), samples were analyzed using an Applied Biosystems API 3000 triple quadrupole mass spectrometer with electrospray ionization (Foster City, CA, United States). Using an Agilent XDB-C18 reversed phase analytical column and optimized mobile phase gradients, 20 μL from each elution were chromatographed. Two Shimadzu 10ADvp pumps (Columbia, MD, United States) provided the pressure for gradient elution. Mobile phase A: 20% methanol, 80% water (v/v) and 1 mM ammonium acetate (Sigma, St. Louis, MO, United States). Mobile phase B: 100% methanol, 1 mM ammonium acetate. Every method run began with 0% mobile phase B, reached 100% mobile phase B flowing at 0.2 mL/min, and gradually returned to 0% mobile phase B.
This screening library will be referred to as the lipidome when discussing data from this study. HPLC/MS/MS data were analyzed using Analyst software (Applied Biosystems) ([Bradshaw et al., 2006]; [Tan et al., 2006]; [Stuart et al., 2013]; [Tortoriello et al., 2013]; [Raboune et al., 2014]; [Leishman et al., 2016a],[b], [2017], [2018]). Chromatograms (Supplementary Figure 3) were generated by determining the retention time of analytes from the analytical column with a [M-1] or [M+1] parent peak and a fragmentation peak corresponding to the programmed values. […]

[1] = hypothalamus, PND 35 adolescent female mice, 3 mg/kg
[2] = midbrain, PND 50, 3mg/kg CP 55,940
[3] = midbrain, PND 50, 3mg/kg CP 55,940, ANOVA p .000
[4] = midbrain, PND 50, 3mg/kg CP 55,940, ANOVA p .001
[5] = midbrain, PND 50, 3mg/kg CP 55,940, ANOVA p .003
[6] = midbrain, PND 50 female mice, 3mg/kg CP 55,940

CCCCCCC(C)(C)c1ccc([C@@H]2C[C@H](O)CC[C@H]2CCCO)c(O)c1 [CP 55,940]
N-stearoyl leucine level, Mean [1]: 1.34E-12 | N-stearoyl phenylalanine level, Mean [1]: 1.92E-12 | N-stearoyl serine level, Mean [1]: 2.17E-11 | N-stearoyl tryptophan level, Mean [1]: 7.7E-12 | Oleic acid level, Mean [1]: 7.46E-10 | PGE2 level, Mean [1]: 2.42E-10 | PhosphoLEA level, Mean [1]: 6.47E-11 | 2-linoleoyl glycerol Direction (relative to Veh) [2]: ↓ | 2-oleoyl glycerol, Direction (relative to Veh) [2]: ↓ | 6-ketoPGF1α Direction (relative to Veh) [2]: ↓ | Arachidonic acid, Direction (relative to Veh) [2]: ↓ | Linoleic acid, Direction (relative to Veh) [2]: ↓ | N-arachidonoyl GABA Direction (relative to Veh) [2]: ↓ | N-arachidonoyl alanine, Direction (relative to Veh) [2]: ↓ | N-arachidonoyl ethanolamine, Direction (relative to Veh) [2]: ↓ | N-arachidonoyl glycine Direction (relative to Veh) [2]: ↓ | N-arachidonoyl methionine, Direction (relative to Veh) [2]: ↓ | N-arachidonoyl phenylalanine, Direction (relative to Veh) [2]: ↓ | N-arachidonoyl tyrosine, Direction (relative to Veh) [2]: ↓ | N-docosahexaenoyl GABA Direction (relative to Veh) [2]: ↓ | N-docosahexaenoyl ethanolamine, Direction (relative to Veh) [2]: ↓ | N-docosahexaenoyl leucine Direction (relative to Veh) [2]: ↑ | N-linoleoyl ethanolamine, Direction (relative to Veh) [2]: ↓ | N-oleoyl ethanolamine, Direction (relative to Veh) [2]: ↓ | N-oleoyl methionine, Direction (relative to Veh) [2]: ↓ | N-palmitoyl alanine, Direction (relative to Veh) [2]: ↓ | N-palmitoyl ethanolamine, Direction (relative to Veh) [2]: ↓ | N-palmitoyl leucine, Direction (relative to Veh) [2]: ↑ | N-palmitoyl serine, Direction (relative to Veh) [2]: ↓ | N-stearoyl methionine, Direction (relative to Veh) [2]: ↓ | N-stearoyl phenylalanine, Direction (relative to Veh) [2]: ↓ | PGE2 Direction (relative to Veh) [2]: ↓ | PGF2α Direction (relative to Veh) [2]: ↓ | Arachidonic acid, Magnitude (x Veh level) [3]: 0.74 x Veh level | N-arachidonoyl glycine Magnitude (x Veh level) [3]: 0.65 x Veh level | N-arachidonoyl methionine, Magnitude (x Veh level) [3]: 0.64 x Veh level | N-arachidonoyl phenylalanine, Magnitude (x Veh level) [3]: 0.69 x Veh level | N-arachidonoyl tyrosine, Magnitude (x Veh level) [4]: 0.68 x Veh level | PGE2 Magnitude (x Veh level) [4]: 0.75 x Veh level | N-palmitoyl leucine, Magnitude (x Veh level) (midbrain, PND 50, 3mg/kg CP 55,940, ANOVA p .002): 1.33 x Veh level | N-docosahexaenoyl GABA Magnitude (x Veh level) [5]: 0.71 x Veh level | N-linoleoyl ethanolamine, Magnitude (x Veh level) [5]: 0.81 x Veh level | Linoleic acid, Magnitude (x Veh level) (midbrain, PND 50, 3mg/kg CP 55,940, ANOVA p .004): 0.75 x Veh level | PGF2α Magnitude (x Veh level) (midbrain, PND 50, 3mg/kg CP 55,940, ANOVA p .007): 0.82 x Veh level | N-palmitoyl ethanolamine, Magnitude (x Veh level) (midbrain, PND 50, 3mg/kg CP 55,940, ANOVA p .011): 0.86 x Veh level | 2-linoleoyl glycerol Magnitude (x Veh level) (midbrain, PND 50, 3mg/kg CP 55,940, ANOVA p .017): 0.82 x Veh level | N-arachidonoyl GABA Magnitude (x Veh level) (midbrain, PND 50, 3mg/kg CP 55,940, ANOVA p .021): 0.73 x Veh level | N-docosahexaenoyl ethanolamine, Magnitude (x Veh level) (midbrain, PND 50, 3mg/kg CP 55,940, ANOVA p .023): 0.81 x Veh level | N-oleoyl methionine, Magnitude (x Veh level) (midbrain, PND 50, 3mg/kg CP 55,940, ANOVA p .026): 0.54 x Veh level | N-arachidonoyl ethanolamine, Magnitude (x Veh level) (midbrain, PND 50, 3mg/kg CP 55,940, ANOVA p .031): 0.83 x Veh level | N-oleoyl ethanolamine, Magnitude (x Veh level) (midbrain, PND 50, 3mg/kg CP 55,940, ANOVA p .037): 0.83 x Veh level | N-stearoyl methionine, Magnitude (x Veh level) (midbrain, PND 50, 3mg/kg CP 55,940, ANOVA p .042): 0.78 x Veh level | N-palmitoyl serine, Magnitude (x Veh level) (midbrain, PND 50, 3mg/kg CP 55,940, ANOVA p .048): 0.84 x Veh level | N-arachidonoyl alanine Magnitude (x Veh level) (midbrain, PND 50, 3mg/kg CP 55,940, ANOVA p .057): 0.62 x Veh level | N-docosahexaenoyl leucine Magnitude (x Veh level) (midbrain, PND 50, 3mg/kg CP 55,940, ANOVA p .063): 1.47 x Veh level | 2-oleoyl glycerol, Magnitude (x Veh level) (midbrain, PND 50, 3mg/kg CP 55,940, ANOVA p .073): 0.89 x Veh level | N-stearoyl phenylalanine, Magnitude (x Veh level) (midbrain, PND 50, 3mg/kg CP 55,940, ANOVA p .077): 0.85 x Veh level | N-palmitoyl alanine, Magnitude (x Veh level) (midbrain, PND 50, 3mg/kg CP 55,940, ANOVA p .081): 0.77 x Veh level | 6-ketoPGF1α Magnitude (x Veh level) (midbrain, PND 50, 3mg/kg CP 55,940, ANOVA p .089): 0.75 x Veh level | 2-arachidonoyl glycerol level, Mean [6]: 3.27E-10 | 2-linoleoyl glycerol level, Mean [6]: 3.73E-10 | 2-oleoyl glycerol level, Mean [6]: 4.95E-09 | 2-palmitoyl glycerol level, Mean [6]: 3.34E-09 | 6-ketoPGF1α level, Mean [6]: 1.22E-11 | 11-OH-THC level, Mean [6]: BDL | 11-nor-9-carboxyTHC level, Mean [6]: BDL | Arachidonic acid level, Mean [6]: 3.1E-10 | Cannabidiol level, Mean [6]: BDL | Linoleic acid level, Mean [6]: 2.67E-10 | N- stearoyl valine level, Mean [6]: 9.43E-14 | N-arachidonoyl GABA level, Mean [6]: 1.55E-11 | N-arachidonoyl alanine level, Mean [6]: 9.08E-14 | N-arachidonoyl dopamine level, Mean [6]: BDL | N-arachidonoyl ethanolamine level, Mean [6]: 3.81E-11 | N-arachidonoyl glycine level, Mean [6]: 4.39E-12 | N-arachidonoyl methionine level, Mean [6]: 1.8E-13 | N-arachidonoyl phenylalanine level, Mean [6]: 5.45E-13 | N-arachidonoyl proline level, Mean [6]: BDL | N-arachidonoyl serine level, Mean [6]: 7.6E-12 | N-arachidonoyl taurine level, Mean [6]: 1.38E-11 | N-arachidonoyl tryptophan level, Mean [6]: BDL | N-arachidonoyl tyrosine level, Mean [6]: 3.91E-13 | N-docosahexaenoyl GABA level, Mean [6]: 1.45E-12 | N-docosahexaenoyl alanine level, Mean [6]: PISSR | N-docosahexaenoyl ethanolamine level, Mean [6]: 5.23E-11 | N-docosahexaenoyl glycine level, Mean [6]: 5.53E-13 | N-docosahexaenoyl leucine level, Mean [6]: 1.28E-13 | N-docosahexaenoyl methionine level, Mean [6]: BDL | N-docosahexaenoyl phenylalanine level, Mean [6]: 6.24E-13 | N-docosahexaenoyl proline level, Mean [6]: BDL | N-docosahexaenoyl serine level, Mean [6]: 1.85E-11 | N-docosahexaenoyl tryptophan level, Mean [6]: BDL | N-docosahexaenoyl tyrosine level, Mean [6]: 5.71E-13 | N-docosahexaenoyl valine level, Mean [6]: PISSR | N-linoleoyl GABA level, Mean [6]: 1.04E-12 | N-linoleoyl alanine level, Mean [6]: PISSR | N-linoleoyl ethanolamine level, Mean [6]: 5.21E-11 | N-linoleoyl glycine level, Mean [6]: 2.23E-13 | N-linoleoyl leucine level, Mean [6]: 3.86E-14 | N-linoleoyl methionine level, Mean [6]: BDL | N-linoleoyl phenylalanine level, Mean [6]: 1.31E-13 | N-linoleoyl proline level, Mean [6]: BDL
